Measured values reported in article PMC6609034, “Unraveling the role of the secretor antigen in human rotavirus attachment to histo-blood group antigens” (PLoS Pathogens, 2019).

Key:
[1] = test system: VP8* P[8]c binding to the H1 antigen; experiment: Binding blocking assay, immobilized H1 antigen; set-up: species or system human rotavirus; conditions: soluble sugar at 20 mM
Procedure: (§1) To confirm the binding of the VP8* from the P[8] genotype to the H type-1 precursor LNB, a blocking assay was performed using soluble LNB and its related disaccharide galacto-N-biose (Gal-β-1,3-GalNAc; GNB) produced and purified in our laboratory as previously described.
(§2) Streptavidin microtiter plates were coated with biotinylated H type-1 antigen or LNB at 2 μg/ml with water and incubated for 1 hour at 37°C, followed by an overnight incubation at 4°C. Blocking assays were performed in parallel, using glass tubes containing the P[8]c and P[8]Wa VP8* protein at their EC50 for each ligand and 20 mM of each of the soluble disaccharides (LNB and GNB) and monosaccharides (D-galactose, GlcNAc and GalNAc). A positive binding control without sugar was also included. The tubes containing the mixes of VP8* with sugars were maintained 1 hour at 37°C, followed by an overnight incubation at 4°C. The next day the coated streptavidin plates were washed with PBS-T, the VP8*-sugar solutions were added to the plates and incubated during 4 hours at 4°C. The plates were washed three times with PBS-T and detection of the interactions was performed as described above. The results are presented as the percentage (%) of binding of each condition compared to the binding of the positive binding control (without blocking sugar). All experiments were performed in triplicate.

[2] = test system: VP8* P[8]c binding to LNB; experiment: Binding blocking assay, immobilized LNB; set-up: species or system human rotavirus; conditions: soluble sugar at 20 mM
Procedure: as §1, §2

VP8* P[4] = experiment: ELISA-like binding assay to biotinylated HBGAs; set-up: species or system human rotavirus; conditions: biotinylated PAA glycan 2 μg/ml, VP8* 10 μg/ml
Text: (§3) A panel of biotinylated sugar antigens including Le^a, Le^b, Le^c (lacto-N-biose; LNB), H type-1, H type-2 and blood group A and B trisaccharides were purchased from Glyconz (Fig 1 and S1 Table). These glycans are biotinylated neoglyconjugates of a poly[N-(2-hydroxyethyl)acrylamide] (PAA) with a size from 30 to 50 KDa. This forms a flexible polymer ideal for a multivalent presentation of glycans. Immobilized streptavidin F96 black plates (Nunc) were coated with the biotinylated oligosaccharides (2 μg/ml) in milli-Q water and incubated during 1 hour at 37°C. After functionalization the plates were washed once with PBS containing 0.05% of Tween 20 (PBS-T) and the VP8* proteins were added (10 μg/ml) and incubated at 4°C overnight. After three washes with PBS-T, a rabbit polyclonal antibody anti GST (1:1,000) (Abcam) was added and the plates were incubated one hour at 37°C. Then, the plates were washed three times with PBS-T and incubated for 1 h at 37°C with 1:10,000 dilution of horseradish peroxidase (HRP)-conjugated goat anti-rabbit (Abcam). After three washes with PBS-T, the binding was detected using QuantaBlue reagent (ThermoFisher) kit, as recommended by the manufacturer. Fluorescence units were registered by a MultiScan microplate reader. All the binding assays were performed in triplicate.

VP8* P[8] = experiment: ELISA-like binding assay to biotinylated HBGAs; set-up: species or system human rotavirus; conditions: biotinylated PAA glycan 2 μg/ml, VP8* 10 μg/ml
Text: as §3

VP8* P[11] = experiment: ELISA-like binding assay to biotinylated HBGAs; set-up: species or system rotavirus; conditions: biotinylated PAA glycan 2 μg/ml, VP8* 10 μg/ml
Text: as §3

VP8* P[14] = experiment: ELISA-like binding assay to biotinylated HBGAs; set-up: species or system human rotavirus; conditions: biotinylated PAA glycan 2 μg/ml, VP8* 10 μg/ml
Text: as §3

VP8* P[9] = experiment: ELISA-like binding assay to biotinylated HBGAs; set-up: species or system human rotavirus; conditions: biotinylated PAA glycan 2 μg/ml, VP8* 10 μg/ml
Text: as §3

VP8* P[25] = experiment: ELISA-like binding assay to biotinylated HBGAs; set-up: species or system rotavirus; conditions: biotinylated PAA glycan 2 μg/ml, VP8* 10 μg/ml
Text: as §3

Compound: C[C@H](O)[C@@H](O)[C@@H](O)[C@H](O)C=O [L-fucose]
- effect on the binding of VP8* to the H1 antigen [1]: significantly increased the binding

Compound: CC(=O)N[C@H]1C(O)O[C@H](CO)[C@H](O)[C@@H]1O[C@@H]1O[C@H](CO)[C@H](O)[C@H](O)[C@H]1O (stereo partly drawn) [GNB, Gal-β1,3-GalNAc]
- reduction in the binding to the H1 antigen [1]: 30.1%
- reduction of the binding of VP8* P[8]c to LNB [2]: 44.1%

Compound: Fuc-α1,2-Gal-β1,3-[Fuc-α1,4-]GlcNAc [Lewis^b]
- binding (ELISA-like) (VP8* P[4]): very low or absence of binding
- binding (ELISA-like) (VP8* P[8]): very low or absence of binding

Compound: O=C[C@H](O)[C@@H](O)[C@@H](O)[C@H](O)CO [D-galactose]
- reduction in the binding to the H1 antigen [1]: 14.7%

Compound: CC(=O)NC1C(O)OC(CO)C(OC2OC(CO)C(O)C(O)C2OC2OC(C)C(O)C(O)C2O)C1O (stereo not drawn) [H2, Fuc-α1,2-Gal-β1,4-GlcNAc]
- binding (ELISA-like) (VP8* P[11]): recognized

Compound: GlcNAc-α1,3-(Fucα1,2)-Gal [Atri]
- binding (ELISA-like) (VP8* P[14]): recognized
- binding (ELISA-like) (VP8* P[8]): low binding
- binding (ELISA-like) (VP8* P[9]): recognized
- binding (ELISA-like) (VP8* P[25]): recognized
